In patent US20230027929A1, “MrgprX2 Antagonists and Uses Thereof” (Dermira, Inc., priority 2019, published 2023):

Biological target: T1, hMrgpMRGPRX2 (Homo sapiens, UniProt Q96LB1)
T1 construct: expressed in transfected cells
T1 sequence (Q96LB1 1-330): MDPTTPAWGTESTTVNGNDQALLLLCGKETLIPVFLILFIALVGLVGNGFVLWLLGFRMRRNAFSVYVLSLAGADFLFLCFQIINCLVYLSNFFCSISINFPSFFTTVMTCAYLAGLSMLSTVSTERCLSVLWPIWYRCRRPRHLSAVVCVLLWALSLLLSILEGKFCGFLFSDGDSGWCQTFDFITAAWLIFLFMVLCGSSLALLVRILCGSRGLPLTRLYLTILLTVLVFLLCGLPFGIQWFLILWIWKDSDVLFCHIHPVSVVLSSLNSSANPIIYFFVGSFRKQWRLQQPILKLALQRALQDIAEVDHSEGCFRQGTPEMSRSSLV
Test: FLIPR intracellular calcium mobilization, antagonist activity in recombinant hMrgpMRGPRX2 expressing cells
Assay type: cell-based
Conditions: read-out: Human MrgprX2 Antagonist pIC50 (converted)
How it was run: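 Antagonist activity was read as inhibition of intracellular calcium mobilization (FLIPR) in recombinant cells expressing human MrgprX2. Potency was also checked in LAD-2 human mast cells with endogenous receptor, and orthologue activity in cells expressing mouse MrgprB2, mouse MrgprA1, and gerbil, Chinese hamster and cynomolgus orthologues.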

IC50 [µM] | SMILES
0.501 | COCC(C)(C)C(=O)Nc1ccc(Oc2ccc(F)c(F)c2)cn1 [Compound E040]
7.94 | CC(C)C(=O)Nc1ccc(Oc2ccc(F)c(C#N)c2)cn1 [Compound E019]
0.0107 | CCN(C[C@@H](O)C(F)(F)F)C(=O)Nc1ccc(Oc2ccc(F)c(F)c2)cn1 [Compound E102, 3-[5-(3,4-difluorophenoxy)-2-pyridyl]-1-ethyl-1-[(2R)-3,3,3-trifluoro-2-hydroxy-propyl]urea]
0.0275 | C[C@]1(C(=O)Nc2ccc(Oc3cc(F)cc(F)c3)cn2)CCCN1S(N)(=O)=O [Compound E282]
0.794 | CC(C)C(=O)Nc1ncc(Oc2cccc(F)c2)cc1O [Compound E287, N-[5-(3-fluorophenoxy)-3-hydroxy-2-pyridyl]-2-methyl-propanamide]
10 | N#Cc1cc(F)cc(Oc2ccc(NC(=O)C3CC3)nc2)c1 [Compound E020]
0.02 | O=C(Nc1ccc(Oc2ccc(F)c(F)c2)cn1)[C@H]1C[C@H]1C(F)(F)F [Compound E045]
0.2 | O=C(Nc1ccc(Oc2ccc(F)c(F)c2)cn1)C1CC1(F)F (centres unmarked) [Compound E028]
2.63 | CN1CCC[C@@H]1C(=O)Nc1ccc(Oc2ccc(F)c(F)c2)cn1 [Compound E278, (2R)-N-[5-(3,4-difluorophenoxy)-2-pyridyl]-1-methyl-pyrrolidine-2-carboxamide]
0.214 | CCN(C[C@@H](O)C(F)(F)F)C(=O)Nc1ccc(-c2cc(F)cc(F)c2)cn1 [Compound E194]
3.16 | N#CC1(C(=O)Nc2ccc(Oc3cc(F)cc(F)c3)cn2)CC1 [Compound E023]
0.0347 | CC1(C)CC1C(=O)Nc1cnc(-c2cc(F)ccc2F)cn1 (centres unmarked) [Compound E226, N-[5-(2,5-difluorophenyl)pyrazin-2-yl]-2,2-dimethyl-cyclopropanecarboxamide]
0.00339 | CCN(C[C@@H](O)C(F)(F)F)C(=O)Nc1ccc(Oc2cc(F)ccc2F)cn1 [Compound E123]
0.575 | CN(C[C@H](O)C(F)(F)F)C(=O)Nc1ccc(Oc2ccc(F)c(F)c2)cn1 [Compound E113]
2 | COc1ccccc1-c1ccc(NC(=O)C(C)C)nc1 [Compound E169]
0.302 | CCN(C[C@@H](O)C(F)(F)F)C(=O)Nc1cnc(Oc2cccc(F)c2)cn1 [Compound E247]
0.00398 | CC1(C)CC1C(=O)Nc1ccc(Oc2ccc(F)c(F)c2)cn1 (centres unmarked) [Compound E029]

The next lines start with the molecule.

SMILES | IC50 [µM]
Cc1cnc(NC(=O)C2C(C)(C)C2(C)C)cn1 [Compound E213] | 1.58
CN(C[C@@](C)(O)C(F)(F)F)C(=O)Nc1cnc(Oc2ccc(F)cc2F)cn1 [Compound E253] | 0.00389
CC1(C)C(C(=O)Nc2ccc(-c3ccn[nH]3)cn2)C1(C)C [Compound E176] | 0.12
Cn1cc(Oc2ccc(NC(=O)C3C(C)(C)C3(C)C)nc2)cn1 [Compound E073] | 0.00363
CN(C[C@@](C)(O)C(F)(F)F)C(=O)Nc1cnc(Oc2cc(F)cc(F)c2)cn1 [Compound E238] | 0.0457
CC1(C)C(C(=O)Nc2ccc(N3CCCC3)cn2)C1(C)C [Compound E097] | 0.00251
CC1(C)C(C(=O)Nc2ccc(Oc3ccc(C#N)cc3F)cn2)C1(C)C [Compound E061] | 0.02
CC1(C)C(C(=O)Nc2ccc(-n3cc(F)cn3)cn2)C1(C)C [Compound E087] | 0.0437
CC1(C)CC1C(=O)Nc1cc(Cl)ccn1 (centres unmarked) [Compound E208] | 3.16
CCN(C[C@@H](O)C(F)(F)F)C(=O)Nc1ccc(-n2cccn2)cn1 [Compound E142, 1-ethyl-3-(5-pyrazol-1-yl-2-pyridyl)-1-[(2R)-3,3,3-trifluoro-2-hydroxy-propyl]urea] | 8.71
CC1(C)C(C(=O)Nc2ccc(-c3ccno3)cn2)C1(C)C [Compound E274, N-(5-isoxazol-5-yl-2-pyridyl)-2,2,3,3-tetramethyl-cyclopropanecarboxamide] | 0.0204
CC1(C)C(C(=O)Nc2ccc(Oc3ccnc(C#N)c3)cn2)C1(C)C [Compound E065] | 0.355
